# Test system: HD-Drosophila expressing mutant HTT97Q
# Assay: Rough eye phenotype in HD-Drosophila (Gmr-HTT97Q)
# Assay type: in vivo, Drosophila melanogaster
# Settings: 10 μM 6CR in media, 4-day-old progenies
# Experimental: The Gmr-ga14-UAS-HTT97Q/cyo line expressing HTT97Q under the control of Gmr-gal4 in compound eyes was provided by MT SU (National Taiwan Normal University, Taipei, Taiwan). Fly stock was maintained and crossed at 25° C. on a standard cornmeal yeast agar medium.
# In each compound treatment experiment, 15 Gmr-ga14-UAS-HTT97Q/cyo male flies were crossed with 15 Gmr-ga14-UAS-HTT-97Q/cyo females in a vial containing 10 mL of media supplemented with the testing compound at a final concentration of 10 μM 6CR (Sigma) or/and 100 μM Tropolone (Sigma). 6-chloropurine riboside (6CR) is a chemical reagent that inhibits the activity of SUPT4H by preventing the complex formation of SUPT4H/SUPT5H (Patent No.: US2018/0064744A1). Parent flies were removed after 7 days, and 4-day-old progenies carrying one Gmr-ga14-UAS-HTT97Q allele were collected for eye morphology examination. […] In each treatment group, flies were analyzed and normalized with control flies. […]
# Please refer to FIG. 8. […] After parent fly removal, the 4-day-old progenies carrying one Gmr-ga14-UAS-HTT97Q allele were collected and analyzed for eye morphology. […] 4-day-old progenies as described above were collected and analyzed the levels of mutant HTT by Western blotting. α-tubulin was included and served as a loading control. […]
compound,measurement,value
"OC[C@H]1O[C@@H](n2cnc3c(Cl)ncnc32)[C@H](O)[C@@H]1O [6-chloropurine riboside (6CR), 6-chloropurine riboside]","rescue of rough eye phenotype, 6CR alone",rescue effect
